Entries after “also recorded” stand apart in the source; their conditions may differ. Where two headings read alike, the source gives them in different places.
What was measured:
[1] = system: A375 human melanoma xenograft; assay: A375 human melanoma xenograft model of nu/nu BALB/c nude mice; format: in vivo, mouse; details: 25 mg/kg daily intra-peritoneal, twenty one days, tumor volume, p=0.04322
Protocol: To further substantiate the anti-melanoma efficacy of the Compound 1, this compound was tested for its anti-melanoma efficacy in A375 human melanoma xenograft model of nu/nu BALB/c nude mice. The animals of 6-8 weeks age (body weight 18-22 g) were used in this study. Animals study protocols were approved by Institutional Ethics Committee (IAEC). All the studies were performed in compliance with the Committee for the Purpose of Control and Supervision of Experiments on Animals (CPCSEA) guidelines and OECD guidelines. Animals were allowed free access to sterile standard rodent diet and provided with charcoal filtered and UV exposed water ad libitum. The animals were housed in a sterile room and were located individually in ventilated cages. The room was maintained at a controlled temperature (24-26° C.), humidity (45-70%), and 12 h/12 h of light/dark cycle.
To induce the melanoma tumor, sub-confluent A375 human melanoma cells were harvested by brief trypsinization and 1×10^6 cells were injected subcutaneously in 0.2 ml phosphate-buffered saline. Drug treatment was started after development of palpable tumors (6-7 days after implantation of the cells). At this point the tumor take rate was 100%. […] After twenty one days of treatment, the animals were sacrificed by CO2 inhalation and tumors growth was measured by the following formula (Friedman H S et al., Mol Cancer Ther 2002; 1:943-948). […]

[2] = system: B16F0 cells; assay: B16 F0 mouse melanoma cell colony formation assay; format: cell-based; details: 8 days
Protocol: Inhibitory efficacy in clone formation of the Compound 1 and DTIC was tested by following the procedure described earlier with some modifications. Briefly, B 16F0 cells were harvested and seeded into 6-well plates (100 cells/ml). The cells were allowed to grow for 4 days and thereafter, the cells were incubated with DMEM containing either 0.1% DMS 0 or 100 μg/ml DTIC or different concentrations (1, 5, 10 or 20 μg/ml) of Compound 1 for further 8 days. Fresh medium containing test agents was replaced at every 24 h. Finally, the wells were washed three times with PBS and fixed in methanol for 15 min. The cells were stained with Giemsa stain and observed under microscope. The image of the stained wells were captured digitally (Kodak Image Station 4000 mM, Carestream Health Inc., New Haven, Conn.) and number of colonies were counted and analyzed by using NIH Image J software.

[3] = system: Human umbilical vein endothelial cells (HUVEC); assay: In vitro endothelial capillary tube formation assay; format: cell-based; details: 16 h
Protocol: In vitro capillary formation assay was performed with Human umbilical vein endothelial cells (HUVEC), cultured on 10 mg/ml basement membrane extract (BME-Cultrex®, R&D Systems, USA) bed. The protocol of in vitro endothelial tube formation assay was the same as described earlier with some modifications (Diana G et al., J. Cell Biol. 1995; Volume 130: 207-215.). Briefly, four hundred microliters of Cultrex was coated at 4° C. in each well of 24-well culture plate and allowed to gel at 37° C. for 1 h. HUVECs were plated at a density of 7.5×10^4 cells per well with 400 μl of DMEM supplemented with 10% fetal bovine serum and 4.5 g/l D-glucose. The cells were then treated with either DTIC or Compound 1 at desired concentration as indicated for 16 hours. Vehicle control cultures received only 0.1% DMSO. Pictures were taken under a Nikon Eclipse TS 100 microscope equipped with a Nikon Coolpix camera.

[4] = system: Human umbilical vein endothelial cells (HUVEC); assay: Endothelial cell migration assay; format: cell-based; details: 5 and 10 μg/ml, 18 h
Protocol: The methodology of endothelial cell migration assay was essentially the same as described earlier with some modifications (Sengupta, K et al., Mol. Cancer. Res. 2004; 2: 150-158.). FALCON™ Cell Culture inserts (Becton Dickinson, USA) with 8 μm-pores in their PET membrane was coated with 0.1 mg/ml of collagen. Human umbilical vein endothelial cells (HUVEC) were added to the cell culture inserts (Becton Dickinson) at a density of 5×10^4 cells/insert. Cells were allowed to migrate through the insert for 18 h in presence of different concentrations of either DTIC or Compound 1. The control culture containing migration assembly received only 0.1% DMSO. […] The membranes of the inserts were then mounted on glass slides. Cells migrated through the membrane pores were counted in 20 random fields under Nikon Eclipse TS 100 microscope at 20× objective.

[5] = cited from earlier work
[6] = system: human plasma protein; details: at therapeutic concentrations; cited from earlier work
[7] = system: malignant melanoma; details: single-agent, malignant melanoma patients; cited from earlier work
[8] = patient with renal and hepatic dysfunctions

Row | Structure (SMILES) | Inhibition of melanoma tumor growth, A375 human melanoma xenograft model of nude mice [1] [%] | Reduction in number of B16 colonies ([2]; at 1 μg/ml) [%] | Reduction in number of B16 colonies ([2]; at 5 μg/ml) [%] | Reduction in number of B16 colonies ([2]; at 10 μg/ml) [%] | Reduction in number of B16 colonies ([2]; at 20 μg/ml) [%] | Endothelial capillary-like tube formation ([3]; 5 and 10 μg/ml) | Migration of human endothelial cells (HUVEC) [4] | melting point [°C] | Initial half life of disappearance from plasma ([5]; biphasic disappearance) [min] | Average cumulative excretion of unchanged drug in the urine ([5]; in six hours) | Initial half life of disappearance from plasma [5, 8] [min] | Terminal half life of disappearance from plasma [5, 8] [min] | inhibition at 100 µg/mL ([2]; Mus musculus, B16F0, 192 h, at 100 μg/ml, read-out: Inhibition of B16 colony formation (number of colonies)) [%] | Binding to human plasma protein [6] | Complete responses [7] | Endothelial capillary-like tube formation ([3]; 100 μg/ml)
1 | Cc1[se]c(C(N)=O)cc1/N=N/N(C)C [Compound 1, 4-[(dimethylamino)diazenyl]-5-methylselenophene-2-carboxamide] | 46.52 | 11 | 35 | 54 | 94 | inhibition of capillary formation in a dose dependent manner; also recorded: exhibited anti-angiogenic properties | significant inhibition of migration; also recorded: inhibited endothelial cell migration | 170 to 172 | – | – | – | – | – | – | – | –
2 | CN(C)N=Nc1[nH]cnc1C(N)=O [DTIC, 5-(3,3-dimethyl-1-trizeno)-imidazole-4-carboxamide, reference compound] | – | – | – | – | – | – | – | – | 19 | 40 % of the injected dose | 55 | 432 | 35.8 | not appreciably bound | less than 5 % of patients | promoted capillary formation; also recorded: could not inhibit the endothelial capillary formation

From US8143237B2, “Anti-cancer drugs, and uses relating for malignant melanoma and other cancers” (Kasina Laila Innova Pharmaceuticals Private Limited, priority 2009, dated 2012)
